Assay results as given in EP2545914A1, “2-amino-2-oxoethyl trans-3-[5-(6-methoxy-naphtalen-1-yl)-1,3-dioxan-2-yl]propyl-carbamate for use in the treatment of persistent cancer pain” (SANOFI, priority 2011, dated 2013).
Like-named read-outs stand apart in the source and are kept apart here.

Experiments:
[1] = system: UDP-glucuronosyl transferase; type: in vitro ADME, human; settings: for % Control (M6G formation) / % Control (M3G formation): Morphine 2mM, protein 0.5 mg/mL, 30 min
Procedure: Incubations were conducted in 2-mL polypropylene centrifuge tubes. Incubation mixtures containing HLM suspension and alamethicin (25 µg/mL) in 0.1 M potassium phosphate buffer (pH 7.4), were placed on wet ice for 5 min. […] Reactions were initiated by the addition of 50 mM UDPGA spiking solution. […] Samples were incubated aerobically in a water bath at 37 °C for the required amount of time and reactions terminated by the addition of 400 µL of the appropriate quench solution. The 2-mL centrifuge tubes were vortex mixed and stored in a -20 °C freezer for ca. 20 min prior to centrifugation at 13.3 x g, 4 °C for 10 min. Supernatants were analyzed by LC-MS/MS for morphine metabolites formation.
UGT-dependent activities were determined by monitoring the formation of enzyme specific metabolites from marker substrates. […] Incubation with selective inhibitors (positive control) was performed at a concentration above their established IC50 for the confirmation of enzyme activity and inhibitory effects.
Incubations were performed in 2-mL centrifuge tubes. Incubation mixtures containing HLM suspension and alamethicin (25 µg/mL) in 0.1 M potassium phosphate buffer (pH 7.4), were placed on wet ice for 5 min. […] Reactions were initiated by the addition of UDPGA. The final incubation mixture contained 0.5 mg/mL HLM, 2 mM MgCl2, 5 mM UDPGA, various concentration of Compound A or a selective inhibitor. Samples were incubated aerobically in a water bath at 37 °C for 30 min. The incubation systems were terminated by the addition of a 400-µL quenching solution. The 2-mL centrifuge tubes were vortex mixed and stored in a -20 °C freezer for approximately 20 min prior to centrifugation at 13.3 x g, 4 °C for 10 min. Supernatants were analyzed by LC-MS/MS.
Percent of Control = Cmet÷Ccontrol × 100% [formula] • Cmet: Concentration of the metabolite in the incubations in the presence of Compound A or selective inhibitor • Ccontrol: Concentration of the enzyme-specific metabolite in the incubations in the absence of Compound A and selective inhibitor • The IC50 for Compound A was estimated by non-linear regression analysis of individual sets of percent inhibition values using GraphPad Prism 5.

[2] = system: mice inoculated with BO2 breast carcinoma cells; experiment: Tactile allodynia (Dynamic Plantar Aesthesiometer) in a model of bone metastatic cancer pain induced by BO2 cells; type: in vivo, female BALB/cByJ Ico-nu/nu mice; settings: for paw withdrawal thresholds to non-noxious stimulations versus vehicle-treated animals: p<0.0001; for Reversal of allodynia (%): T2h; for Delta values (Delta PWT): T2h minus T0
Procedure: The model of cancer pain MDA-MB-231 breast cancer cells cause the development of highly vascularized skeletal lesions in animals. Here, we chose to perform a model of bone metastasis induced by BO2 cells, a sub-clone of MDA-MB-231 cancer cells expressing the bioluminescent jellyfish protein (green fluorescent protein). BO2 cells were inoculated into the tail of nude mice. […] In our study, BO2 invasion of the hind paws was evaluated by combining both fluorescence imaging and X-Ray radiology with evaluation of allodynic-like behavior in the tumor-bearing hind paws. The aim of the study was to assess the anti-allodynic activity of Compound A in a model of bone metastatic cancer pain in mice, at the time when allodynia-like symptoms are fully developed.
Non-fasted female BALB/cByJ Ico-nu/nu mice (aged 4 weeks at the beginning of the experimental phase, Charles River Laboratories, L'Arbresle, France) were used for this study. One week before starting the experiment and to enable full acclimatization, mice were caged in groups of 10 animals per cage. They were housed in macrolon type III cages with filter hoods in a sterile room in which the air was continuously filtered to avoid any contamination. The sterility of the room was checked once a month and the cages were sterilized at 121°C for 30 minutes before use and changed twice a week. Room temperature was maintained at 22°C, and relative humidity at 60% ±10%. The animals were kept under a natural daylight cycle. The animals were fed with RO3 irradiated at 10 kGy, purchased from UAR (91360 Epinay sur Orge, France), and water sterilized at 121°C for 30 minutes. Water consumption was visually monitored daily and the bottles were changed twice a week. Food and water were given ad libitum. The animal bedding was produced by UAR and sterilized at 121°C for 30 minutes and renewed twice a week. One day before the beginning of the study, mice were implanted in the back with an electronic chip for identification purposes. The day of BO2 breast carcinoma inoculation into the tail vein, mice were placed in groups of 9 or 8 animals per cage. Tumor progression (fluorescence imaging +X-Ray radiology) associated with evoked pain behavior were measured at least once a week during the entire study (data available on request). This allowed us to ensure that only mice with tumor progression and pain-like behavior were selected to enter in the testing procedure.
Compound A as a base was prepared extemporaneously as follows: the compound was weighed and 0.5% of Tween 80 was added, followed by addition of 0.6% Methyl Cellulose. The resulting suspensions were maintained at room temperature under magnetic stirring until the administration. Compound A was administered via oral gavage in a volume of 10 mL/kg, once daily for 7 days. On the first day of treatment, Compound A was administered at 30 mg/kg. From day 2 to day 7, Compound A was administered at 10 mg/kg.
For the present study, 2 groups of 8 mice receiving the BO2 breast carcinoma cells and 1 group of 8 mice (control animals) receiving only the culture medium were used (Table 1.1). Table 1.1 - Design of the study
No animals were excluded for this study. However, one mouse died in one of the BO2-inoculated groups (mouse found dead in the cage on day 7), while no mice died in the control group (n = 8). No randomization was performed at the beginning of the experiment and mice were treated by cage. A seven day treatment with Compound A or vehicle was performed with evaluation of evoked pain at day 1, day 3 and day 7 post-treatment. As bone metastases were distributed in both hind-paws, we decided at the beginning of the study to arbitrarily measure pain-like behavior evoked by a stimulus in only one hind-paw (the right hind-paw). Pain-like behaviors before and after treatment with vehicle or Compound A were evaluated during 3 sessions (i.e. on day 1, day 3 and day 7). […]

CC(=O)N1CCN(c2ccc(OCC3COC(Cn4ccnc4)(c4ccc(Cl)cc4Cl)O3)cc2)CC1 (centres unmarked) [ketoconazole, reference compound]
inhibition of M6G activity ([1]; positive control, same conditions (2 mM morphine, HLM 0.5 mg/mL, 30 min)): ≥ 98.5%

COc1ccc2c(cccc2[C@H]2CO[C@H](CCCNC(=O)OCC(N)=O)OC2)c1 [Compound A, 2-amino-2-oxoethyl trans-3-[5-(6-methoxy-naphtalen-1-yl)-1,3-dioxan-2-yl]propyl-carbamate]
IC50 (M3G and M6G formation) ([1]; 2 mM morphine, Compound A 0.5 to 250 µM, HLM): could not be estimated | % Control (M6G formation) ([1]; Compound A 0.5 µM): 96.9% | % Control (M6G formation) ([1]; Compound A 1.0 µM): 94.4% | % Control (M6G formation) ([1]; Compound A 5.0 µM): 102.4% | % Control (M6G formation) ([1]; Compound A 10 µM): 110.4% | % Control (M6G formation) ([1]; Compound A 25 µM): 105.8% | % Control (M6G formation) ([1]; Compound A 50 µM): 108.3% | % Control (M6G formation) ([1]; Compound A 100 µM): 97.4% | % Control (M6G formation) ([1]; Compound A 250 µM): 96.5% | % Control (M3G formation) ([1]; Compound A 0.5 µm): 97.7% | % Control (M3G formation) ([1]; Compound A 1.0 µm): 96.2% | % Control (M3G formation) ([1]; Compound A 5.0 µm): 106.0% | % Control (M3G formation) ([1]; Compound A 10 µm): 107.9% | % Control (M3G formation) ([1]; Compound A 25 µm): 108.3% | % Control (M3G formation) ([1]; Compound A 50 µm): 105.7% | % Control (M3G formation) ([1]; Compound A 100 µm): 92.7% | % Control (M3G formation) ([1]; Compound A 250 µm): 94.2% | drug interaction with morphine ([1]; according to in vitro results): no significant drug interaction | inhibition of morphine metabolism ([1]; human liver microsomes, M3G and M6G formation): no inhibition | paw withdrawal thresholds to non-noxious stimulations versus vehicle-treated animals ([2]; 10 mg/kg PO once daily, day 3 and day 7): significantly higher | Reversal of allodynia (%) ([2]; Day 3, 10 mg/kg PO): 45.06 ±3.11% | Delta values (Delta PWT) ([2]; Day 3, 10 mg/kg PO): 0.78 ±0.06 | Reversal of allodynia (%) ([2]; Day 7, 10 mg/kg PO): 41.87 ±4.01% | Delta values (Delta PWT) ([2]; Day 7, 10 mg/kg PO): 0.79 ±0.08 | evoked-pain induced by bone metastases in the hind-paw ([2]; acute oral dosing, allodynia fully installed): significantly reversed | Reversal of allodynia (%) ([2]; day 1, 30 mg/kg PO, Mean ±SEM): 68.74 ±8.99% | Delta values (Delta PWT) ([2]; day 1, 30 mg/kg PO, Mean ±SEM): 1.04 ±0.13 | PWT values at T0 ([2]; day 1, T0 (baseline before administration), group dosed 30 mg/kg PO, Mean ±SEM): 1.815 ±0.065 gram | PWT values at T0 ([2]; day 7, T0 (before that day's administration), 10 mg/kg PO once daily, Mean ±SEM): 1.728 ±0.050 gram | paw withdrawal thresholds to non-noxious stimulations versus vehicle-treated animals ([2]; first day, 30 mg/kg PO): significantly higher | tolerance in analgesic effect ([2]; repeated (7 days) administration): did not induce tolerance
